EP0314008A2, “N-substituted aliphatic heterocyclic compounds able to facilitate the passage of active substances through physiological barriers” (priority 1987, dated 1989)
One block for each molecule: values may come before it.

Columns and labels:
serotonin = experiment: Test 74 - Antiserotonin (in vitro), isolated ileal segments; assay type: cell-based, guinea pig; conditions: Cavia porcellus, contractile response to serotonin (1 mcg/ml); for inhibition at 1 µg/mL: Dose 1 γ/ml
Text: Test 74 - Antiserotonin (in vitro):

[1] = tested on: skin taken from a "nude" mouse
Description: (§1) This study was carried out by "in vitro" tests using a skin diffusion cell apparatus consisting of two glass segments separated by a layer of skin taken from a "nude" mouse, genetically without hair. Suspensions of the substance to be tested are deposited on the stratum corneum of the skin. The dermic layer dips into a buffer solution from which withdrawals are made at intervals to determine the quantity of substance which has passed through the epidermis.
(§2) 1-dodecylazacycloheptan-2-one (azone) is used as reference standard.
(§3) Suspensions at the required concentrations (0.5 and 1% w/v) are then prepared by ultrasonic treatment three times for 30 seconds in an ice bath with a titanium-tipped ultrasonic generator. The pHs of the 1 % suspensions in 0.1 M pH 7.0 phosphated buffer are as follows:
(§4) The volume of examined suspension applied externally to the skin is 1 ml. The volume of buffer solution in the cell lower chamber is 10 ml. After each withdrawal of 1 ml of solution from the lower chamber, the volume was made up to 10 ml by adding buffer.

[2] = tested on: skin taken from a "nude" mouse; experiment: skin permeability test in vitro, skin diffusion cell apparatus, passage of naproxen-Na; conditions: naproxen-Na passage with facilitating substance at 0.5%, second set
Description: as §1, §2, §3, §4

LTD4 = experiment: Test 37 - LTD4 antagonist (in vitro), isolated ileal segments; assay type: cell-based, guinea pig; conditions: Cavia porcellus, contractile response to LTD4 (10 ng/ml)
Text: Test 37 - LTD4 antagonist (in vitro):

histamine = experiment: Test 73 - Antihistaminic (in vitro), isolated ileal segments; assay type: cell-based, guinea pig; conditions: Cavia porcellus, contractile response to histamine (0.5 mcg/ml)
Text: Test 73 - Antihistaminic (in vitro):
Inhibition of submaximal contractile responses of isolated guinea pig ileal segments, bathed in physiological salt solution, to histamine (0.5 mcg/ml) by more than 80 percent (>80) indicates activity.

SMILES: CN1CCC(=C2c3ccccc3C=Cc3ccccc32)CC1 [Cyproheptadine, reference compound]
inhibition at 1 µg/mL (serotonin): 85%

results compared with the compound of Example 3 [1]: practically equal results
SMILES: CCCCCCCCCCCCN1CCSCC1 [Example 1, 4-dodecylthiomorpholine]

SMILES: CCCCCCCCCCCCN1CC[S+]([O-])CC1 [Example 2, 4-dodecylthiomorpholine-1-oxide]
F.U.a. 355.5 nm ([2]; 3.0 hours): 0.143 F.U.a. | nmoles passed ([2]; 3.0 hours): 366.0 nmol | F.U.a. 355.5 nm ([2]; 5.0 hours): 0.426 F.U.a. | nmoles passed ([2]; 5.0 hours): 1093.0 nmol | F.U.a. 355.5 nm ([2]; 7.0 hours): 0.755 F.U.a. | nmoles passed ([2]; 7.0 hours): 1968.0 nmol | F.U.a. 355.5 nm ([2]; […]): 0.033 F.U.a. | nmoles passed ([2]; […]): 82.5 nmol

SMILES: CCCCCCCCCC(=O)N1CCSCC1 [Example 5, 4-decanoylthiomorpholide]
inhibition at 4 µg/mL (LTD4; Dose 4 γ/ml): 28% | inhibition at 8 µg/mL (LTD4; Dose 8 γ/ml): 75% | inhibition at 1 µg/mL (histamine; Dose 1 γ/ml): 18% | inhibition at 2.5 µg/mL (histamine; Dose 2.5 γ/ml): 82% | inhibition at 10 µg/mL (histamine; Dose 10 γ/ml): 100% | inhibition at 0.5 µg/mL (serotonin; Dose 0.5 γ/ml): 68% | inhibition at 1 µg/mL (serotonin): 100% | inhibition at 2.5 µg/mL (serotonin; Dose 2.5 γ/ml): 100% | inhibition at 10 µg/mL (serotonin; Dose 10 γ/ml): 100%
